Biological target: AT2 receptor (Homo sapiens (Human), UniProt P50052)
Test: AT2 Receptor Binding
Settings: HEK293 AT2 receptor transient cell membranes, [125I]-CGP42112A
Protocol: 1. Trypsin-EDTA (for Preparation of 100 mL)
• Dissolve trypsin in 2% EDTA and PBS completely; sterilize the solution by passing through a […] membrane filter; store at 4° C.
2. DMEM Medium (for Preparation of 1 L) • The powder was dissolved into 950 mL of distilled water with gentle stirring until the solution becomes clear. • Add. NaHCO3 1.176 g for DMEM medium. • Adjust pH of medium to 0.2˜0.3 below final working pH using 1 M NaOH or 1 M • HCl. Add slowly with stirring. • Dilute to 1 liter with ddH2O. • Sterilize the medium immediately by filtration. • Store at 4° C.
3. TE Buffer • 20 mM Tris-HCl, pH 7.4, • 5 mM EDTA
4. Binding Assay Buffer • 50 mM Hepes, pH 7.4 • 5 mM MgCl2 • 1 mM CaCl2 • 0.2% BSA
5. Wash Buffer • 50 mM Hepes, pH 7.4 Procedures for HEK293AT2 Receptor Transient Cell Transfection • Cells were plated into 150 mm dish at 50% density for transient transfection. Cells were ready for transfection after overnight incubation (the confluence reaches around 80%). • 75 μL Lipofectamine™2000 diluted in 6.25 mL OptiMEM I Reduced Serum Medium, was mixed gently, and incubated at room temperature for 5 minutes. 50 μg expression plasmid DNA diluted in 6.25 mL OptiMEM I Reduced Serum Medium without serum was mixed gently. • After the 5 minute incubation, the diluted DNA was combined with the diluted Lipofectamine™2000 (total volume is 12.5 mL). The mixture was mixed gently and incubated for 30 minutes at room temperature to allow the DNA-Lipofectamine™2000 complexes to form. • The 12.5 mL DNA-Lipofectamine™2000 complexes were added into the 150 mm dish and mixed gently by rocking the dish back and forth. • The cells were incubated at 37° C. with 5% CO2 for 48 hours. Cells were collected and stored frozen at −80° C. Procedures for HEK293AT2 Receptor Cell Membrane Preparation • Frozen HEK293AT2 receptor (transient transfected) cells were homogenized in ice cold TE buffer for 10s. • The homogenate was centrifuged at 25,000 g for 30 minutes. • The pellet was resuspended in ice cold tissue buffer. • Protein concentrations were determined using Bradford assay method with BSA as standard. • The membrane protein was frozen under −80° C. Compound Preparation
Solutions of all compounds were prepared bymicroplate liquid handling equipment such as Janus or Precision 2000. Compounds, dissolved in DMSO were stored in a Freezer. Compounds were prepared from 30 mM in 100% DMSO.
Step 1: Dose Plate Preparation (96 Well Plate)
• Add the 3 μL [30 mM] compound stock to column 1 on the plate. • Add 15 μL of 100% DMSO to column 1. • Add 10.81 μL of 100% DMSO to column 2-12. • Transfer 5 μL from column 1 into column 2 (half log dilution). • Transfer 5 μL from column 2 into column 3 (half log dilution). • Transfer 5 μL from column 3 into column 4 (half log dilution). • Transfer 5 μL from column 4 into column 5 (half log dilution). • Transfer 5 μL from column 5 into column 6 (half log dilution). • Transfer 5 μL from column 6 into column 7 (half log dilution). • Transfer 5 μL from column 7 into column 8 (half log dilution). • Transfer 5 μL from column 8 into column 9 (half log dilution). • Transfer 5 μL from column 9 into column 10 (half log dilution) • Transfer 5 μL from column 10 into column 11 (half log dilution) • Transfer 5 μL from column 11 into column 12 (half log dilution).
All the compounds were diluted using Precision 2000 microplate liquid handling equipment. The top concentration of compound was 5 mM with 100% DMSO.
Step 2: Working Plate Preparation (96 Well Plate)
• Compounds were diluted 50-fold with buffer. • 49 μL buffer was added to the well of 96 well plate. • 1 μL compound solution from dose plate was transferred to the corresponding well of working plate. • The top concentration of compound was 100 μM with 2% DMSO. Step 3: Assay Plate Preparation (96 Well Plate)
15 μL of compound solution was transferred from each well of working plate to the well of assay plate by Janus.

Sequence of AT2 receptor (P50052 whole entry, species assumed): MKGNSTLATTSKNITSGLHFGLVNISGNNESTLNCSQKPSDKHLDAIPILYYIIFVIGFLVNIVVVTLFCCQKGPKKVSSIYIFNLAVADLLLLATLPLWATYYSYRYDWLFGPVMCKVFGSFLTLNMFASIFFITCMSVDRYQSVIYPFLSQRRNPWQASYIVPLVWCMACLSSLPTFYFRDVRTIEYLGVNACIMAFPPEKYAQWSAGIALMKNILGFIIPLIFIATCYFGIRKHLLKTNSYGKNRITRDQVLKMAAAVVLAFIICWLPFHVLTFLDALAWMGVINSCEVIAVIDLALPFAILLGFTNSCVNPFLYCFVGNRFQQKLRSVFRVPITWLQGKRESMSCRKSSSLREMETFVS

| SMILES | IC50 |
| --- | --- |
| O=C(O)[C@@H]1C[C@H](CSCc2ccccc2)CN1C(=O)C(c1ccccc1)c1ccccc1 [Compound 121, (2S,4S)-4-((benzylthio)methyl)-1-(2,2-diphenylacetyl)pyrrolidine-2-carboxylic acid] | 57.7 nM |
| O=C(O)[C@@H]1C[C@H](OCc2ccccc2)CN1C(=O)C(c1ccccc1)c1ccccc1 [Compound 2, (2S,4S)-4-(benzyloxy)-1-(2,2-diphenylacetyl)pyrrolidine-2-carboxylic acid] | 114 nM |
| O=C(O)[C@@H]1C[C@H](COCc2ccccc2)CN1C(=O)C(c1ccccc1)c1ccccc1 [Compound 54] | 155 nM |
| CN(C)S(=O)(=O)NC(=O)[C@@H]1C[C@H](OCCCc2ccccc2)CN1C(=O)C(c1ccccc1)c1ccccc1 [Compound 112, (2S,4S)—N—(N,N-dimethylsulfamoyl)-1-(2,2-diphenylacetyl)-4-(3-phenylpropoxy)pyrrolidine-2-carboxamide] | 255 nM |
| O=C(O)[C@@H]1C[C@H](CSc2ccccc2)CN1C(=O)C(c1ccccc1)c1ccccc1 [Compound 122, (2S,4S)-1-(2,2-diphenylacetyl)-4-((phenylthio)methyl)pyrrolidine-2-carboxylic acid] | 143 nM |
| CS(=O)(=O)NC(=O)[C@@H]1C[C@H](OCCCc2ccccc2)CN1C(=O)C(c1ccccc1)c1ccccc1 [Compound 135, (2S,4S)-1-(2,2-diphenylacetyl)-N-(methylsulfonyl)-4-(phenylpropoxy)pyrrolidine-2-carboxamide] | 240 nM |
| O=C(O)[C@@H]1C[C@H](N2CCC3(CC2)C(=O)NC3c2ccccc2)CN1C(=O)C(c1ccccc1)c1ccccc1 (stereo partly drawn) [Compound 75, (2S,4S)-1-(2,2-diphenylacetyl)-4-(1-oxo-3-phenyl-2,7-diazaspiro[3,5]nonan-7-yl)pyrrolidine-2-carboxylic acid] | 3830 nM |
| O=C(O)[C@@H]1C[C@H](N2CC[C@@H](c3ccccc3)C2)CN1C(=O)C(c1ccccc1)c1ccccc1 [Compound 86] | 817 nM |
| CN(CCOc1ccc(F)cc1)[C@H]1C[C@@H](C(=O)O)N(C(=O)C(c2ccccc2)c2ccccc2)C1 [Compound 126] | 20.5 nM |
| O=C(O)[C@@H]1C[C@H](N2C(=O)COC[C@@H]2Cc2ccccc2)CN1C(=O)C(c1ccccc1)c1ccccc1 [Compound 102, (2S,4S)-4-((S)-3-benzyl-5-oxomorpholino)-1-(2,2-diphenylacetyl)pyrrolidine-2-carboxylic acid] | 499 nM |
| O=C(O)[C@@H]1C[C@H](CSCCc2ccccc2)CN1C(=O)C(c1ccccc1)c1ccccc1 [Compound 120, (2S,4S)-1-(2,2-diphenylacetyl)-4-((phenethylthio)methyl)pyrrolidine-2-carboxylic acid] | 1200 nM |
| O=C(CCc1ccccc1)N[C@H]1C[C@@H](C(=O)O)N(C(=O)C(c2ccccc2)c2ccccc2)C1 [Compound 96, (2S,4S)-1-(2,2-diphenylacetyl)-4-(3-phenylpropanamido)-pyrrolidine-2-carboxylic acid] | 2250 nM |
| O=C(O)[C@@H]1C[C@H](c2ncc(-c3ccccc3)o2)CN1C(=O)C(c1ccccc1)c1ccccc1 [Compound 56] | 315 nM |
| O=C(O)[C@@H]1C[C@H](CCOCc2ccccc2)CN1C(=O)C(c1ccccc1)c1ccccc1 [Compound 55, (2S,4R)-4-(2-(benzyloxy)ethyl)-1-(2,2-diphenylacetyl)-pyrrolidine-2-carboxylic acid] | 386 nM |
| O=C(O)[C@@H]1C[C@H](N2CCC[C@H]3CN(Cc4ccccc4)C[C@H]32)CN1C(=O)C(c1ccccc1)c1ccccc1 [Compound 84] | 75.8 nM |

Second part, the compound after the results:

| IC50 | SMILES |
| --- | --- |
| 426 nM | O=C(O)[C@@H]1C[C@H](CCCCc2ccccc2)CN1C(=O)C(c1ccccc1)c1ccccc1 [Compound 106, (2S,4S)-1-(2,2-diphenylacetyl)-4-(4-phenylbutyl)-pyrrolidine-2-carboxylic acid] |
| 193 nM | O=C(O)[C@@H]1C[C@@H](OCc2ccccc2)CN1C(=O)C(c1ccccc1)c1ccccc1 [Compound 3, (2S,4R)-4-(benzyloxy)-1-(2,2-diphenylacetyl)pyrrolidine-2-carboxylic acid] |
| 89.4 nM | O=C(O)[C@@H]1C[C@H](N2CCC[C@@H](c3ccccc3)C2)CN1C(=O)C(c1ccccc1)c1ccccc1 [Compound 48, (2S,4S)-1-(2,2-diphenylacetyl)-4-((S)-3-phenylpiperidine-1-yl)pyrrolidine-2-carboxylic acid] |
| 1740 nM | O=C(O)[C@@H]1C[C@H](SCCCc2ccc(F)cc2)CN1C(=O)C(c1ccccc1)c1ccccc1 [Compound 133, (2S,4S)-1-(2,2-diphenylacetyl)-4((3-(4-fluorophenyl)propyl)thio)pyrrolidine-2-carboxylic acid] |
| 540 nM | CN(CCCc1ccccc1)[C@H]1C[C@@H](C(=O)O)N(C(=O)C(c2ccccc2)C2CCCCC2)C1 (stereo partly drawn) [Compound 62, (2S,4S)-1-(2-cyclohexyl-2-phenylacetyl)-4-(methyl(3-phenylpropyl)amino)pyrrolidine-2-carboxylic acid] |
| 650 nM | CN(CC#Cc1ccccc1)[C@H]1C[C@@H](C(=O)O)N(C(=O)C(c2ccccc2)c2ccccc2)C1 [Compound 116, (2S,4S)1-(2,2-diphenylacetyl)-4-(methyl(3-phenylprop-2-yn-1-yl)amino)pyrrolidine-2-carboxylic acid] |
| 2530 nM | O=C(O)[C@@H]1C=C(c2sccc2-c2ccccc2)CN1C(=O)C(c1ccccc1)c1ccccc1 [Compound 139, (S)-1-(2,2-diphenylacetyl)-4-(3-phenylthiophen-2-yl)-2,5-dihydro-1H-pyrrole-2-carboxylic acid] |
| 2650 nM | O=C(O)[C@@H]1C[C@H](CS(=O)(=O)c2ccccc2)CN1C(=O)C(c1ccccc1)c1ccccc1 [Compound 119, (2S,4S)-4-((phenylsulfonyl)methyl)-1-(diphenylacetyl)-pyrrolidine-2-carboxylic acid] |
| 674 nM | O=C(O)[C@@H]1C=C(C#CCCc2ccccc2)CN1C(=O)C(c1ccccc1)c1ccccc1 [Compound 140, (S)-1-(2,2-diphenylacetyl)-4-(4-phenylbut-1-yn-1-yl)-2,5-dihydro-1H-pyrrole-2-carboxylic acid] |
| 18 nM | O=C(O)[C@@H]1C[C@H](n2nncc2-c2ccccc2)CN1C(=O)C(c1ccccc1)c1ccccc1 [Compound 100, (2S,4S)-1-(2,2-diphenylacetyl)-4-(5-phenyl-1H-1,2,3-triazol-1-yl)pyrrolidine-2-carboxylic acid] |
| 321 nM | O=C(O)[C@@H]1C[C@H](N2CCC3(CCOC(=O)N3Cc3ccccc3)C2)CN1C(=O)C(c1ccccc1)c1ccccc1 (some centres unmarked) [Compound 115] |
| 458 nM | CN(C(=O)CCc1ccccc1)[C@H]1C[C@@H](C(=O)O)N(C(=O)C(c2ccccc2)c2ccccc2)C1 [Compound 97, (2S,4S)-1-(2,2-diphenylacetyl)-4-(N-methyl-3-phenylpropanamido)pyrrolidine-2-carboxylic acid] |
| 54.5 nM | O=C(O)C1Cc2c(OCc3ccccc3)cccc2N1C(=O)C(c1ccccc1)c1ccccc1 (centres unmarked) [Compound 15, 4-(benzyloxy)-1-(2,2-diphenylacetyl)indoline-2-carboxlic acid] |
| 290 nM | O=C(O)[C@@H]1C[C@H](N2CCN(c3ccccc3)CC2)CN1C(=O)C(c1ccccc1)c1ccccc1 [Compound 23, (2S,4S)-1-(2,2-diphenylacetyl)-4-(4-phenylpiperazine)pyrrolidine-2-carboxylic acid] |

Source: patent US9624243B2, “Heterocyclic compounds and methods of their use” (Novartis AG, priority 2012, dated 2017)
